We go through 13 molecules from patent publication EP0912534B1, “MUSCARINIC ANTAGONISTS” (SCHERING CORPORATION, priority 1996, dated 1998).

pKi: −log10 of the molar value. Read-outs that look alike come from different tables or passages of the source.

Assay [1] addresses T1, cloned human m2 muscarinic receptor (Homo sapiens, UniProt P08172).
T1 sequence (P08172 1-466): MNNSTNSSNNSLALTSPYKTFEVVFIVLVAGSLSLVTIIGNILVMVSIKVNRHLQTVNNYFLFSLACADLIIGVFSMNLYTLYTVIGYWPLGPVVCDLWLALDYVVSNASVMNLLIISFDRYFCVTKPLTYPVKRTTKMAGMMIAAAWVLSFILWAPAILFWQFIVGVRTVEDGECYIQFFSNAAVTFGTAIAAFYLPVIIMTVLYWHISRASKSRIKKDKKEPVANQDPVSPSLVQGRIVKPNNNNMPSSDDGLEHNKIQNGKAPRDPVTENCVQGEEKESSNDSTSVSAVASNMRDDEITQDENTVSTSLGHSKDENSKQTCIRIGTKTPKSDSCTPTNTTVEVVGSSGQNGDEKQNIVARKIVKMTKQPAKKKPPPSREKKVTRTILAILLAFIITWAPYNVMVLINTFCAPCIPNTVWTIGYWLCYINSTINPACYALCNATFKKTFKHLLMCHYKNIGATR
As to the kind of experiment: Muscarinic binding activity (3H-QNB displacement), m2.

Assay [2] deals with T2, cloned human m1 muscarinic receptor (Homo sapiens, UniProt P11229).
T2 sequence (P11229 1-460): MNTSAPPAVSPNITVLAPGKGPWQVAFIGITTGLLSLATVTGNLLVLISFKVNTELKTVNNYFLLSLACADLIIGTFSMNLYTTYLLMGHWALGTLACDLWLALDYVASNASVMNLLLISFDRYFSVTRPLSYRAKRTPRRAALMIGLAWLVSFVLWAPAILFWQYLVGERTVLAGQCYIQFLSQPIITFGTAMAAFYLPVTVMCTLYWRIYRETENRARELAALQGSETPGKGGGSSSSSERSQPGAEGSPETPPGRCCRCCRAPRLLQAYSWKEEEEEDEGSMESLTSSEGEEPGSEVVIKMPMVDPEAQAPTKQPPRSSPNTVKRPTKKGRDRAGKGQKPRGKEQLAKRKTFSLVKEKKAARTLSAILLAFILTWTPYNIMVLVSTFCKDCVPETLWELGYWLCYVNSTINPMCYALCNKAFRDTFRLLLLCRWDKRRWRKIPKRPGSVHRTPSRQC
The assay is described as follows: Muscarinic binding activity (3H-QNB displacement), m1.

For assay [3], the target named is T3, cloned human m4 muscarinic receptor (Homo sapiens, UniProt P08173).
T3 sequence (P08173 1-479): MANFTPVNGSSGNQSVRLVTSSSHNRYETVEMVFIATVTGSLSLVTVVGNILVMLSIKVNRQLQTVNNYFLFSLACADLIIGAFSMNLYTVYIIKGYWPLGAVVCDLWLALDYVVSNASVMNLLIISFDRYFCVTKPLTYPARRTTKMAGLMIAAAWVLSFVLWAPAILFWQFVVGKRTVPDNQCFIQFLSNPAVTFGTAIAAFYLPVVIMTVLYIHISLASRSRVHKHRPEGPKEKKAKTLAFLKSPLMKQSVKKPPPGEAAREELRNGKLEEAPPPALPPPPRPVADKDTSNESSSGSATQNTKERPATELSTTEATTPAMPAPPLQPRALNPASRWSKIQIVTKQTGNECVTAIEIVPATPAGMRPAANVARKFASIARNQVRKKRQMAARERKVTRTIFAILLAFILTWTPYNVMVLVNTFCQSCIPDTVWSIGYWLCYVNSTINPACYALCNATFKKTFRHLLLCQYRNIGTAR
The assay is described as follows: Muscarinic binding activity (3H-QNB displacement), m4.

The test system of assay [4] is Release of Acetyl Choline (ACh) from Striatum. The assay is described as follows: Microdialysis: release of acetylcholine from striatum of conscious rats. Particulars: 10 mg/kg peritoneal, 3 rats, Isomer A. The class given is in vivo, male Sprague-Dawley Rats. The protocol: The skull was exposed and drilled through to the dura at a point 0.2 mm anterior and 3.0 mm lateral to the bregma. At these coordinates, a guide cannula was positioned at the outer edge of the dura through the drilled opening, lowered perpendicularly to a depth of 2.5 mm, and permanently secured with dental cement to bone screws. Following the surgery, rats were given ampicillin (40 mg/kg, ip) and individually housed in modified cages. A recovery period of approximately 3 to 7 days was allowed before the microdialysis procedure was undertaken. • Microdialysis: All of the equipment and instrumentation used to conduct in vivo microdialysis was obtained from Bioanalytical Systems, Inc. (BAS). The microdialysis procedure required the insertion through the guide cannula of a thin, needle-like perfusable probe (CMA/12.3 mm x 0.5 mm) to a depth of 3 mm in striatum beyond the end of the guide. The probe was connected beforehand with tubing to a microinjection pump (CMA-/100). Rats were collared and tethered, and, following probe insertion, were placed in a large clear plexiglass bowl with litter material and access to food and water. The probe was perfused at 2 µl/min with Ringer's buffer (NaCl 147 mM; KCI 3.0 mM; CaCl2 1.2 mM; MgCl2 1.0 mM) containing 5.5 mM glucose, 0.2 mM L-ascorbate, and 1 µM neostigmine bromide at pH 7.4. To achieve stable baseline readings, microdialysis was allowed to proceed for 90 minutes prior to the collection of fractions. Fractions (20 µl) were obtained at 10-minute intervals over a 3-hour period using a refrigerated collector (CMA/170 or 200). Following the collection of four to five baseline fractions, the drug or combination of drugs to be tested was administered to the animal. Once collection was complete, each rat was autopsied to determine how accurately the probe was placed. • Acetylcholine (ACh) analysis: The concentration of ACh in collected samples of microdialysate was determined using HPLC/electrochemical detection. Samples were auto-injected (Waters 712 Refrigerated Sample Processor) onto a polymeric analytical HPLC column (BAS, MF-6150) and eluted with 50 mM Na2HPO4, pH 8.5. To prevent bacterial growth, Kathon CG reagent (0.005%) (BAS) was included in the mobile phase. Eluate from the analytical column, containing separated ACh and choline, was then immediately passed through an immobilized enzyme reactor cartridge (BAS, MF-6151) coupled to the column outlet. The reactor contained both acetylcholinesterase and choline oxidase covalently bound to a polymeric backbone. […] Data acquisition was carried out using an IBM Model 70 computer equipped with a microchannel IEEE board. Integration and quantification of peaks were accomplished using "Maxima" chromatography software (Waters Corporation). Total run time per sample was 11 minutes at a flow rate of 1 ml/min. Retention times for acetylcholine and choline were 6.5 and 7.8 minutes respectively. To monitor and correct for possible changes in detector sensitivity during chromatography, ACh standards were included at the beginning, middle and end of each sample queue.
Increases in ACh levels are consistent with presynaptic m2 receptor antagonism.

Setting [5] is: membranes of transfected CHO cells, read-out: Ki m2.
Setting [6] is: membranes of transfected CHO cells, read-out: Ki m1.
Where [7] appears, read: membranes of transfected CHO cells, read-out: Ki m4.

Consider `Nc1ccc(Oc2ccc3c(c2)CCCC3N2CCN(C3CCCCC3)CC2)cc1` (stereo not shown) [Compound 7], for which the pKi is 7.59 in assay [1] (setting [5]), 6.98 in assay [2] (setting [6]) and 7.68 in assay [3] (setting [7]).

`COc1ccc(S(=O)(=O)c2ccc3c(c2)CCC3N2CCN(C3CCCCC3)C[C@H]2C)cc1` (single isomer, unassigned) [Compound 14]: the pKi in assay [1] (Ki m2, membranes of transfected CHO cells) was 8.21; in assay [2] (Ki m1, membranes of transfected CHO cells), 6.95; in assay [3] (Ki m4, membranes of transfected CHO cells), 7.80. The “Mean % of baseline” value was 99.47 % of baseline in assay [4] (sample collection time 20 min (control, first baseline, before injection)); 100.85 % of baseline in assay [4] (sample collection time 30 min (control, second baseline, before injection)); 99.71 % of baseline in assay [4] (sample collection time 40 min (control, third baseline, before injection)); 99.20 % of baseline in assay [4] (sample collection time 50 min (compounds injected at 50 minutes)); 100.78 % of baseline in assay [4] (sample collection time 60 min, injected at 50 min); 86.66 % of baseline in assay [4] (sample collection time 70 min, injected at 50 min). Also, the “Mean % of baseline” value was 95.26 % of baseline in assay [4] (sample collection time 80 min, injected at 50 min); 95.90 % of baseline in assay [4] (sample collection time 90 min, injected at 50 min); 102.30 % of baseline in assay [4] (sample collection time 100 min, injected at 50 min); 108.24 % of baseline in assay [4] (sample collection time 110 min, injected at 50 min); 85.62 % of baseline in assay [4] (sample collection time 120 min, injected at 50 min); 103.94 % of baseline in assay [4] (sample collection time 130 min, injected at 50 min). The “Mean % of baseline” value in assay [4] (sample collection time 140 min, injected at 50 min) is 99.35 % of baseline; in assay [4] (sample collection time 150 min, injected at 50 min), 91.47 % of baseline; in assay [4] (sample collection time 160 min, injected at 50 min), 90.80 % of baseline; in assay [4] (sample collection time 170 min, injected at 50 min), 89.0 % of baseline; in assay [4] (sample collection time 180 min, injected at 50 min) it was 83.13 % of baseline.

Regarding `O=S(=O)(c1ccccc1)c1ccc2c(c1)CCC2N1CCN(CCO)CC1` (stereo not shown) [Compound 1], the pKi is 7.10 in assay [1] (setting [5]), 6.45 in assay [2] (setting [6]) and 6.97 in assay [3] (setting [7]).

`COc1ccc(S(=O)(=O)c2ccc3c(c2)CCC3N2CCC(N3CCCCC3)CC2)cc1` (stereo not shown) [Compound 13]: the results for the pKi in assay [1] (setting [5]), in assay [2] (setting [6]) and in assay [3] (setting [7]) were 7.77, 7.17 and 7.48, respectively.

As for `c1cnc(Oc2ccc3c(c2)CCC3N2CCN(C3CCCCC3)CC2)nc1` (single isomer, unassigned) [Compound 11], the values for the pKi in assay [1] (setting [5]) and in assay [2] (setting [6]) were 7.06 and 6.50, respectively.

Take `c1cnc(Oc2ccc3c(c2)CCCC3N2CCN(C3CCCCC3)CC2)nc1` (stereo not shown) [Compound 5, 4-Cyclohexyl-1-piperazinyl-[6-[(2-pyrimidinyl)oxy]]-1,2,3,4-tetrahydronaphthalene]: the pKi in assay [1] (setting [5]) is 7.68; in assay [2] (setting [6]), 6.80; in assay [3] (setting [7]), 7.46.

On to `c1cnc(Oc2ccc3c(c2)CCC3N2CCN(C3CCCCC3)CC2)nc1` (single isomer, unassigned) [Compound 10], for which the pKi is 7.94 in assay [1] (setting [5]), 6.82 in assay [2] (setting [6]) and 7.77 in assay [3] (setting [7]).

Regarding `O=[N+]([O-])c1ccc(Oc2ccc3c(c2)CCCC3N2CCN(C3CCCCC3)CC2)cc1` (stereo not shown) [Compound 6], the pKi in assay [1] (setting [5]) was 7.02; in assay [2] (setting [6]), 6.20; in assay [3] (setting [7]), 7.11.

For `c1cnc(Oc2ccc3c(c2)CC(CC2CCCCC2)C3N2CCN(C3CCCCC3)CC2)nc1` (stereo not shown) [Compound 12, 2-[[1-(4-Cyclohexyl-1-piperazinyl)-2-(cyclohexylmethyl)-2,3-dihydro-1H-inden-5-yl]oxy]pyrimidine], the pKi is 7.04 in assay [1] (setting [5]) and 6.76 in assay [2] (setting [6]).

For the molecule `c1cnc(Oc2ccc3c(c2)CCC3N2CCN(C3CCCCC3)CC2)nc1` (stereo not shown) [Compound 9], the pKi was 7.46 in assay [1] (setting [5]) and 6.58 in assay [2] (setting [6]).

For the molecule `Nc1ccc(Oc2ccc3c(c2)OCCC3N2CCN(C3CCCCC3)CC2)cc1` (stereo not shown) [Compound 3], the pKi in assay [1] (setting [5]) was 6.89; in assay [2] (setting [6]), 7.09; in assay [3] (setting [7]), 7.43.

In the case of `O=[N+]([O-])c1ccc(Oc2ccc3c(c2)OCCC3N2CCN(C3CCCCC3)CC2)cc1` (stereo not shown) [Compound 2, 1-Cyclohexyl-4-[7-[(4-nitrophenyl)oxy]-chroman-4-yl]-piperazine], the pKi in assay [1] (setting [5]) was 7.57; in assay [2] (setting [6]) it was 7.38.

As for `CC(=O)Nc1ccc(Oc2ccc3c(c2)OCCC3N2CCN(C3CCCCC3)CC2)cc1` (stereo not shown) [Compound 4], the figures for the negative logarithm of the Ki (pKi) in assay [1] (setting [5]), in assay [2] (setting [6]) and in assay [3] (setting [7]) were 6.65, 6.65 and less than 6.70, respectively.
